# Assay results as given in patent publication US10980798B2, “Pharmaceutical compositions of hydrophobic camptothecin derivatives” (Taiwan Liposome Company, Ltd., priority 2011, dated 2021).
# Legend:
# [1] = stated as known; cited from earlier work
# [2] = Aqueous solubility with mPEG2000-DSPE formulation; assay type: physicochemical; settings: water with mPEG2000-DSPE formulation, aqueous with cosolvent or surfactant or cyclodextrin
# Protocol: In addition, the aqueous solubility of […] increased to 10 mg/mL with mPEG2000-DSPE formulation.
# Hep3B = test: SRB cytotoxicity assay, Hep3B; assay type: cell-based; settings: Homo sapiens
# From the text: (§1) Human hepatoma cell lines Hep3B, HepG2, HepG2/2.2.15, Huh-7 and Sk-Hep-1, human glioblastoma cell line RG-2, and human prostate cancer cell line DU145 were maintained in DMEM (HyClone Laboratories, Logan, Utah, USA). Human prostate cancer cell line LNCap was maintained in RPMI-1640 culture medium (Sigma-Aldrich, St. Louis, Mo., USA). […] Human prostate cancer cell line PC-3 was maintained in the Ham's F-12K medium (Invitrogen, Carlsbad, Calif., USA) with the same medium supplements described in the culture medium except that the fetal bovine serum concentration was reduced to 7% by volume. Cancer cells were maintained at 37° C. in a humidified incubator (Nuaire, USA) containing 5% CO2.
# (§2) The SRB assay was used for measuring cancer cell viability. The cancer cells in the plate wells were rinsed with 1× PBS and treated with 1× trypsin-EDTA (Invitrogen, Carlsbad, Calif.). The culture medium was added to dilute the trypsin-EDTA. The detached cancer cells were harvested by centrifugation and suspended in the 1 ml culture medium. Ten μl of the cell suspension was dispensed into counting chambers and the cell density was determined microscopically. The cells in 198 μl suspensions were seeded onto a 96-well cell plate (Nunc, Rochester, N.Y.) at the appropriate cell density per well and incubated in the cell culture incubator overnight.
# (§3) We evaluated the ant-cancer activity of the following CPT derivatives pharmaceutical compositions: • 1. TLC388 HCl, a non-water soluble CPT derivative (obtained from ScinoPharm Taiwan Ltd., Taiwan); • 2. […]
# (§4) At the end of the incubation period, cells were fixed by adding 50 μl of cold 50% TCA (w/v) (Sigma, St Louis, Mo., USA) to a final concentration of 10% TCA and further incubated at 4° C. for 60 minutes. […] Bound stain in each well was solubilized with 100 μl of 10 mM trizma base (Bioshop, Burlington, ON, Canada), and the absorbance was measured using an automated plate reader (Anthos 2001, Anthos Labtec Instrument) at 540 nm.
# (§5) The graph and data were analyzed by SigmaPlot 10.0 software and Microsoft Excel 2002.
# myeloid CFCs = test: Bone marrow suppression evaluation, colony assay, myeloid progenitors; assay type: cell-based; settings: human bone marrow progenitors, methylcellulose colony assay, 14-16 days
# Protocol: (§6) An in vitro evaluation of the effect of the pharmaceutical compositions on human bone marrow cells was performed.
# (§7) Protocol: Clonogenic progenitors of the erythroid (CFU-E, BFU-E), granulocyte-monocyte (CFU-GM) and multipotential lineages (CFU-GEMM) were set up in methylcellulose-based medium (R&D Systems) containing recombinant rhSCF (50 ng/mL), rhIL-3 (10 ng/mL), rhGM-CSF (10 ng/mL),and rhEpo (3 U/mL).
# (§8) TLC388 HCl and Topotecan were diluted in DMSO and Lipotecan® was diluted in sterile water to provide the appropriate working stock concentrations. These working stock solutions were subsequently added to the methylcellulose-based colony assay medium described above. The colony assay mediums were set up in triplicate at 2×10^4 cells per culture medium.
# (§9) The replicate culture mediums were incubated at 37° C. in 5% CO2 for 14-16 days. After this time, the resultant colonies in the culture medium were evaluated by a senior scientist in term of size and morphology.
# LNCap = test: SRB cytotoxicity assay, LNCap; assay type: cell-based; settings: Homo sapiens
# From the text: as §1, §2, §3, §4, §5
# HT29 = test: SRB cytotoxicity assay, HT29 (colon cancer); assay type: cell-based; settings: Homo sapiens, HT-29; HT29, incubation 72 h
# Protocol: as §2, §3, §4, §5
# RG-2 = test: SRB cytotoxicity assay, RG-2 glioma cell line; assay type: cell-based; settings: Homo sapiens, RG2
# From the text: as §1, §2, §3, §4, §5
# Sk-Hep-1 = test: SRB cytotoxicity assay, Sk-Hep-1; assay type: cell-based; settings: Homo sapiens, SK-HEP1
# From the text: as §1, §2, §3, §4, §5
# PC-3 = test: SRB cytotoxicity assay, PC-3; assay type: cell-based; settings: Homo sapiens
# From the text: as §1, §2, §3, §4, §5
# DU145 = test: SRB cytotoxicity assay, DU145; assay type: cell-based; settings: Homo sapiens, DU-145
# From the text: as §1, §2, §3, §4, §5
# HCT116 = test: SRB cytotoxicity assay, HCT116 (colon cancer); assay type: cell-based; settings: Homo sapiens, HCT-116; HCT116, incubation 72 h
# Protocol: as §2, §3, §4, §5
# Huh-7 = test: SRB cytotoxicity assay, Huh-7; assay type: cell-based; settings: Homo sapiens
# From the text: as §1, §2, §3, §4, §5
# HepG2 = test: SRB cytotoxicity assay, HepG2; assay type: cell-based; settings: Homo sapiens
# From the text: as §1, §2, §3, §4, §5
# [3] = system: erythroid Colony Forming Cells (CFCs); test: Bone marrow suppression evaluation, colony assay, erythroid progenitors; assay type: cell-based; settings: human bone marrow progenitors, methylcellulose colony assay, 14-16 days
# Protocol: as §6, §7, §8, §9
# HepG2/2.2.15 = test: SRB cytotoxicity assay, HepG2/2.2.15; assay type: cell-based; settings: Homo sapiens
# From the text: as §1, §2, §3, §4, §5
structure (smiles),measurement,setting,value
"CC[C@@]1(OC(=O)C(C)(C)ON=C2c3cc([N+](=O)[O-])cc([N+](=O)[O-])c3-c3c2cc([N+](=O)[O-])cc3[N+](=O)[O-])C(=O)OCc2c1cc1n(c2=O)Cc2cc3c(CN(C)C)c(O)ccc3nc2-1.Cl [TLC1988 HCl, (S)-10-[(dimethylamino)methyl]-4-ethyl-9-hydroxy-4-O-[2-methyl-2-(2″,4″,5″,7″-tetranitro-9″-fluorenylideneaminooxy)propionyl]-1H-pyrano[3′,4′:6,7]indolizino[1,2-b]quinoline-3,14-(4H,12H)-dione, monohydrochloride]",stability in an alkaline condition,[1],unstable in an alkaline condition
same,solubility,[2],10 mg/mL
CC[C@@]1(O)C(=O)OCc2c1cc1n(c2=O)Cc2cc3c(CN(C)C)c(O)ccc3nc2-1 [Topotecan],IC50,Hep3B; incubation 24 h,> 50 µM
same,IC50,Hep3B; incubation 48 h,64.6 µM
same,IC50,Hep3B; incubation 72 h,0.2 µM
same,IC50,myeloid CFCs,0.0087 µM
same,IC50,LNCap; incubation 24 h,14.9 µM
same,IC50,LNCap; incubation 48 h,6.15 µM
same,IC50,LNCap; incubation 72 h,2.59 µM
same,IC50,HT29,0.038 µM
same,IC50,"RG-2; RG-2, incubation 24 h",7.23 µM
same,IC50,"RG-2; RG-2, incubation 48 h",2.78 µM
same,IC50,"RG-2; RG-2, incubation 72 h",3 µM
same,IC50,"Sk-Hep-1; Sk-Hep-1, incubation 24 h",74.9 µM
same,IC50,"Sk-Hep-1; Sk-Hep-1, incubation 48 h",12.5 µM
same,IC50,"Sk-Hep-1; Sk-Hep-1, incubation 72 h",2.1 µM
same,IC50,"PC-3; PC-3, incubation 24 h",131 µM
same,IC50,"PC-3; PC-3, incubation 48 h",18.1 µM
same,IC50,"PC-3; PC-3, incubation 72 h",3.58 µM
same,IC50,"DU145; DU145, incubation 24 h",2.25 µM
same,IC50,"DU145; DU145, incubation 48 h",0.6 µM
same,IC50,"DU145; DU145, incubation 72 h",0.58 µM
same,IC50,HCT116,0.008 µM
same,IC50,"Huh-7; Huh-7, incubation 24 h",65.3 µM
same,IC50,"Huh-7; Huh-7, incubation 48 h",5.05 µM
same,IC50,"Huh-7; Huh-7, incubation 72 h",2.8 µM
same,IC50,"HepG2; HepG2, incubation 24 h",57.5 µM
same,IC50,"HepG2; HepG2, incubation 48 h",2.73 µM
same,IC50,"HepG2; HepG2, incubation 72 h",0.686 µM
same,IC50,[3],0.0118 µM
same,IC50,"HepG2/2.2.15; HepG2/2.2.15, incubation 24 h",> 50 µM
same,IC50,"HepG2/2.2.15; HepG2/2.2.15, incubation 48 h",63.1 µM
same,IC50,"HepG2/2.2.15; HepG2/2.2.15, incubation 72 h",0.58 µM
